# Laboratory results reported in PubChem BioAssay (NCI).
#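 Protocol summary: plate cells (96-well), add compound at 5 concentrations, incubate 48 h, interpolate endpoints linearly. At the GI50, growth is halved. At the TGI there is no net growth.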
# Key:
# Experiment in all cases: growth of human tumour cells (NCI), 48 h
# SK-MEL-28 melanoma = system: SK-MEL-28 melanoma
# MOLT-4 leukemia = system: MOLT-4 leukemia
# SK-OV-3 ovarian = system: SK-OV-3 ovarian
# UACC-62 melanoma = system: UACC-62 melanoma
# RXF 393 renal = system: RXF 393 renal
# M14 melanoma = system: M14 melanoma
# SF-268 CNS = system: SF-268 CNS
# 786-0 renal = system: 786-0 renal
# IGROV1 ovarian = system: IGROV1 ovarian
# EKVX NSCLC = system: EKVX NSCLC
Compound,GI50 (SK-MEL-28 melanoma),TGI (SK-MEL-28 melanoma),GI50 (MOLT-4 leukemia),TGI (MOLT-4 leukemia),GI50 (SK-OV-3 ovarian),TGI (SK-OV-3 ovarian),GI50 (UACC-62 melanoma),TGI (UACC-62 melanoma),GI50 (RXF 393 renal),TGI (RXF 393 renal),GI50 (M14 melanoma),TGI (M14 melanoma),GI50 (SF-268 CNS),TGI (SF-268 CNS),GI50 (786-0 renal),TGI (786-0 renal),GI50 (IGROV1 ovarian),TGI (IGROV1 ovarian),TGI (EKVX NSCLC),GI50 (EKVX NSCLC)
N=C(N)c1ccc(-c2ccc(-c3ccco3)o2)cc1,2.31 µM,6.22 µM,3.26 µM,10.8 µM,9.21 µM,21.2 µM,1.82 µM,3.9 µM,4.68 µM,18.4 µM,1.9 µM,3.77 µM,4.85 µM,18.7 µM,3.93 µM,17.1 µM,4.38 µM,16.7 µM,–,–
O=C(O)c1cc(/C=C/c2ccc(O)c(O)c2)ccc1O,–,> 100 µM,–,> 100 µM,–,> 100 µM,–,> 100 µM,–,> 100 µM,–,> 100 µM,–,> 100 µM,–,> 100 µM,–,> 100 µM,> 100 µM,–
CCCCCCCCOCC(O)COC (stereo unspecified),–,> 100 µM,–,> 100 µM,–,> 100 µM,–,> 100 µM,–,–,–,> 100 µM,–,> 100 µM,–,> 100 µM,–,> 100 µM,–,–
NC(N)=Nc1nc2cc(N)ccc2o1,–,> 100 µM,–,> 100 µM,–,> 100 µM,–,> 100 µM,–,–,–,> 100 µM,–,> 100 µM,–,> 100 µM,–,–,> 100 µM,–
COc1cc(OC)c(Oc2cccc(OC)c2OC)c(OC)c1,–,> 100 µM,–,> 100 µM,–,> 100 µM,–,> 100 µM,–,–,–,> 100 µM,–,> 100 µM,–,> 100 µM,–,> 100 µM,> 100 µM,–
COc1cc2c3c(c1OC)C1(C=CC(=O)C=C1)CC3N(C(=O)OC(C)(C)C(Cl)(Cl)Cl)CC2 (stereo unspecified),–,–,–,17.9 µM,–,96.9 µM,–,28.4 µM,–,18.5 µM,–,28.8 µM,–,31.8 µM,–,28.8 µM,–,41.9 µM,45.2 µM,–
NC(=O)c1ncn(C2CCC(CP(=O)(O)O)C2)c1N (stereo unspecified),–,> 100 µM,–,> 100 µM,–,> 100 µM,–,> 100 µM,–,> 100 µM,–,> 100 µM,–,> 100 µM,–,> 100 µM,–,> 100 µM,> 100 µM,–
O=C1C=Cc2cc3ccccc3c3cccc1c23,10.5 µM,> 100 µM,5.03 µM,> 100 µM,19.5 µM,> 100 µM,1.81 µM,6.43 µM,2.71 µM,8.62 µM,15.7 µM,> 100 µM,4.55 µM,27 µM,4.29 µM,> 100 µM,8.42 µM,> 100 µM,8.92 µM,2.55 µM
NC(=O)NC1=NCCC(=O)N1CCc1c[nH]c2ccccc12,–,41.2 µM,–,39.1 µM,–,> 100 µM,–,36.9 µM,–,48.3 µM,–,29.3 µM,–,47 µM,–,> 100 µM,–,42.1 µM,48.6 µM,–
Cc1ccc(NC(=O)C(=O)C2C(=O)C3=C(CC2(C)C)NC2C=CC=CC2S3)c(C)c1 (stereo unspecified),–,> 100 µM,–,> 100 µM,–,> 100 µM,–,> 100 µM,–,> 100 µM,–,–,–,> 100 µM,–,> 100 µM,–,> 100 µM,> 100 µM,–
O=C(Nc1ccc(Cl)cc1Cl)c1c/c(=N\O)c2ccc(O)cc2o1,–,> 100 µM,–,> 100 µM,–,> 100 µM,–,> 100 µM,–,> 100 µM,–,> 100 µM,–,> 100 µM,–,> 100 µM,–,> 100 µM,–,–
COc1ccc(/C(C#N)=C/c2nc3c(N4CCOCC4)nc(Cl)nc3n2C)cc1OC,1.1 µM,2.43 µM,0.0251 µM,2.89 µM,< 0.01 µM,5.52 µM,< 0.01 µM,1.68 µM,–,–,< 0.01 µM,–,0.0173 µM,2.23 µM,< 0.01 µM,1.61 µM,< 0.01 µM,1.27 µM,2.76 µM,–
C=C1c2c(C)nn(-c3ccccc3)c2N(C)C23C[C@@H]1C1(C)c4c(C)nn(-c5ccccc5)c4N(C)C(C)(C[C@H]12)C3 (stereo partly specified),22.6 µM,> 100 µM,–,–,4.64 µM,21.8 µM,4.38 µM,> 100 µM,2.04 µM,6.39 µM,–,–,7.52 µM,> 100 µM,11.8 µM,69.4 µM,11.9 µM,> 100 µM,–,–
COc1ccc(-n2cc(-c3ccc(Cl)cc3)[nH]c2=S)cc1Cl,36.5 µM,> 100 µM,43 µM,> 100 µM,23.6 µM,52.6 µM,83.5 µM,> 100 µM,25.6 µM,54.1 µM,–,–,28 µM,76.5 µM,20 µM,41.4 µM,30.2 µM,> 100 µM,> 100 µM,42.8 µM
CCSc1sc(-c2ccc(C)cc2)nc1[P+](c1ccccc1)(c1ccccc1)c1ccccc1,0.532 µM,1.82 µM,0.391 µM,1.87 µM,0.262 µM,0.898 µM,0.292 µM,1.24 µM,0.255 µM,1.23 µM,0.342 µM,1.51 µM,0.328 µM,1.43 µM,0.375 µM,1.57 µM,–,–,0.904 µM,0.244 µM
COC(=O)C(=O)C(C(=O)C(=O)Nc1ccc(Cl)cc1Cl)c1nc2ccc(Cl)cc2[nH]c1=O (stereo unspecified),–,> 100 µM,–,> 100 µM,–,> 100 µM,–,> 100 µM,–,–,–,> 100 µM,–,> 100 µM,–,> 100 µM,–,> 100 µM,> 100 µM,–
CC(C)=CCNc1ncnc2c1ncn2C1OC(COP(=O)(O)O)C(O)C1O (stereo unspecified),> 100 µM,> 100 µM,4.22 µM,> 48.5 µM,4.77 µM,> 100 µM,9.03 µM,> 100 µM,2.38 µM,8.98 µM,10.4 µM,> 100 µM,8.77 µM,> 100 µM,5.82 µM,> 79.6 µM,11 µM,> 100 µM,–,–
CC(C)(C)NC(=O)C12C3C4C1C1C2C3C41I (stereo unspecified),–,> 100 µM,–,> 100 µM,–,–,–,–,–,–,–,–,–,–,–,> 100 µM,–,–,–,–
